Results published in ChEMBL document CHEMBL3045719, “Insecticidal and Neuroblocking Activities toward American Cockroach (Periplaneta americana L.) of Imidacloprid Metabolites, 5-Hydroxy-, 4,5-Dihydroxy- and 4,5-Dehydroimidacloprid” (J Pestic Sci, 2004).
Calls of active or inactive are those of the source. No cut-off for these calls is given here.

How the values were obtained:
[1] = test system: Periplaneta americana; test: Insecticidal activity against adult form of Periplaneta americana (American cockroach) assessed as concentration required for neuroblock in excised central nerve cord; type: functional
[2] = test system: Periplaneta americana; test: Insecticidal activity against adult form of Periplaneta americana (American cockroach) assessed as paralysis compound injected into abdominal region measured after 24 hr; type: functional
[3] = test system: Periplaneta americana; test: Insecticidal activity against adult form of Periplaneta americana (American cockroach) assessed as paralysis at 250 nmol injected into abdominal region measured after 1 to 32 hr; type: functional, organism-based
[4] = test system: Periplaneta americana; test: Insecticidal activity against adult form of Periplaneta americana (American cockroach) assessed as paralysis at 1.1 nmol injected into abdominal region measured after 24 hr; type: functional, organism-based
[5] = test system: Periplaneta americana; test: Insecticidal activity against adult form of Periplaneta americana (American cockroach) assessed as paralysis at 1.1 nmol injected into abdominal region measured after 13 hr; type: functional, organism-based
[6] = test system: Periplaneta americana; test: Insecticidal activity against adult form of Periplaneta americana (American cockroach) assessed as paralysis at 1.1 nmol injected into abdominal region measured after 3 hr; type: functional, organism-based
[7] = test system: Periplaneta americana; test: Insecticidal activity against adult form of Periplaneta americana (American cockroach) assessed as paralysis at 1.1 nmol injected into abdominal region measured after 8 hr; type: functional, organism-based
[8] = test system: Periplaneta americana; test: Insecticidal activity against adult form of Periplaneta americana (American cockroach) assessed as paralysis at 1.1 nmol injected into abdominal region measured after 2 hr; type: functional, organism-based
[9] = test system: Periplaneta americana; test: Insecticidal activity against adult form of Periplaneta americana (American cockroach) assessed as paralysis at 1.1 nmol injected into abdominal region measured after 1 hr; type: functional, organism-based
[10] = test system: Periplaneta americana; test: Insecticidal activity against adult form of Periplaneta americana (American cockroach) assessed as paralysis at 1.1 nmol injected into abdominal region measured after 32 hr; type: functional, organism-based
[11] = Half life in Apis mellifera (honey bee); type: ADME, organism-based; conditions: in vivo
[12] = test system: Periplaneta americana; test: Insecticidal activity against adult form of Periplaneta americana (American cockroach) assessed as paralysis at 19 nmol injected into abdominal region measured after 32 hr; type: functional, organism-based
[13] = test system: Periplaneta americana; test: Insecticidal activity against adult form of Periplaneta americana (American cockroach) assessed as paralysis at 19 nmol injected into abdominal region measured after 24 hr; type: functional, organism-based
[14] = test system: Periplaneta americana; test: Insecticidal activity against adult form of Periplaneta americana (American cockroach) assessed as paralysis at 19 nmol injected into abdominal region measured after 13 hr; type: functional, organism-based
[15] = test system: Periplaneta americana; test: Insecticidal activity against adult form of Periplaneta americana (American cockroach) assessed as paralysis at 19 nmol injected into abdominal region measured after 8 hr; type: functional, organism-based
[16] = test system: Periplaneta americana; test: Insecticidal activity against adult form of Periplaneta americana (American cockroach) assessed as paralysis at 19 nmol injected into abdominal region measured after 3 hr; type: functional, organism-based
[17] = test system: Periplaneta americana; test: Insecticidal activity against adult form of Periplaneta americana (American cockroach) assessed as paralysis at 19 nmol injected into abdominal region measured after 2 hr; type: functional, organism-based
[18] = test system: Periplaneta americana; test: Insecticidal activity against adult form of Periplaneta americana (American cockroach) assessed as paralysis at 19 nmol injected into abdominal region measured after 1 hr; type: functional, organism-based
[19] = target: T1, Nicotinic acetylcholine receptor alpha 5 subunit (Musca domestica) (UniProt A9XFY4); test: Binding affinity to nicotinic acetylcholine receptor in Musca domestica (house fly) head membrane relative to imidacloprid
T1 sequence (whole entry): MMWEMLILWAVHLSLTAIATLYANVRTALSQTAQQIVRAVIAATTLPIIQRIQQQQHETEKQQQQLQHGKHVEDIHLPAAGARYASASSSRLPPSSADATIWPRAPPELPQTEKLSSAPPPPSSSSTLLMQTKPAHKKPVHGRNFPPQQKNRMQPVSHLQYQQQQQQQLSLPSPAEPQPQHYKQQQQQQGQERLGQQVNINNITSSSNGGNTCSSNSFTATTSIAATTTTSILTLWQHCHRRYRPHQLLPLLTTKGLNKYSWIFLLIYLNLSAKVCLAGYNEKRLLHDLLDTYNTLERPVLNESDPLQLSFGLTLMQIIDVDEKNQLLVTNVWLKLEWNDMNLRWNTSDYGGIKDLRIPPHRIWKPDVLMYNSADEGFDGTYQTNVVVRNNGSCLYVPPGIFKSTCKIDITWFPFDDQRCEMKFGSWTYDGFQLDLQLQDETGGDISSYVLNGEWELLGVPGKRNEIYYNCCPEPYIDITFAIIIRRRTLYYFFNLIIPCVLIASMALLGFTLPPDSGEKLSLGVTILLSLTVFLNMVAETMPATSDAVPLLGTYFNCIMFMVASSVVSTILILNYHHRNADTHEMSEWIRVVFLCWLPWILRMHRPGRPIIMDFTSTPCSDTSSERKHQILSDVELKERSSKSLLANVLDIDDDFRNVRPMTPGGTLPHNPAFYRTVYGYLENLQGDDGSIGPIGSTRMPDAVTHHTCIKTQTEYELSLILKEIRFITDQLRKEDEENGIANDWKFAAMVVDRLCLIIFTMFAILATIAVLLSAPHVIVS

[20] = test system: Periplaneta americana; test: Ratio of imidacloprid efficacy to compound efficacy adult form of Periplaneta americana (American cockroach) assessed as concentration required for neuroblock in excised central nerve cord; type: functional
[21] = test system: Myzus persicae; test: Ratio of imidacloprid efficacy to compound efficacy for po dosed Myzus persicae (green peach aphid); type: functional
[22] = test system: Bemisia tabaci; test: Ratio of imidacloprid efficacy to compound efficacy for po dosed Bemisia tabaci (sweet potato whitefly); type: functional
[23] = test system: Aphis gossypii; test: Ratio of imidacloprid efficacy to compound efficacy for po dosed Aphis gossypii (cotton aphid); type: functional
[24] = Lipophilicity, log P of the compound; type: physicochemical; conditions: octanol/water
[25] = test system: Periplaneta americana; test: Ratio of imidacloprid MLD to compound MLD for adult form of Periplaneta americana (American cockroach) assessed as paralysis compound injected into abdominal region measured after 24 hr; type: functional
[26] = test system: Periplaneta americana; test: Insecticidal activity against adult form of Periplaneta americana (American cockroach) assessed as paralysis at 8.4 nmol stored at 4 degC for 10 days injected into abdominal region measured after 2 hr; type: functional, organism-based
[27] = test system: Periplaneta americana; test: Insecticidal activity against adult form of Periplaneta americana (American cockroach) assessed as paralysis at 8.4 nmol stored at 4 degC for 10 days injected into abdominal region measured after 1 hr; type: functional, organism-based
[28] = test system: Periplaneta americana; test: Insecticidal activity against adult form of Periplaneta americana (American cockroach) assessed as paralysis at 8.4 nmol injected into abdominal region measured after 24 hr; type: functional, organism-based
[29] = test system: Periplaneta americana; test: Insecticidal activity against adult form of Periplaneta americana (American cockroach) assessed as paralysis at 8.4 nmol injected into abdominal region measured after 13 hr; type: functional, organism-based
[30] = test system: Periplaneta americana; test: Insecticidal activity against adult form of Periplaneta americana (American cockroach) assessed as paralysis at 8.4 nmol injected into abdominal region measured after 8 hr; type: functional, organism-based
[31] = test system: Periplaneta americana; test: Insecticidal activity against adult form of Periplaneta americana (American cockroach) assessed as paralysis at 8.4 nmol injected into abdominal region measured after 3 hr; type: functional, organism-based
[32] = test system: Periplaneta americana; test: Insecticidal activity against adult form of Periplaneta americana (American cockroach) assessed as paralysis at 8.4 nmol injected into abdominal region measured after 2 hr; type: functional, organism-based
[33] = test system: Periplaneta americana; test: Insecticidal activity against adult form of Periplaneta americana (American cockroach) assessed as paralysis at 8.4 nmol injected into abdominal region measured after 1 hr; type: functional, organism-based
[34] = test system: Periplaneta americana; test: Insecticidal activity against adult form of Periplaneta americana (American cockroach) assessed as paralysis at 8.4 nmol injected into abdominal region measured after 32 hr; type: functional, organism-based
[35] = test system: Periplaneta americana; test: Insecticidal activity against adult form of Periplaneta americana (American cockroach) assessed as paralysis at 8.4 nmol stored at 4 degC for 10 days injected into abdominal region measured after 3 hr; type: functional, organism-based

Structure (SMILES): O=[N+]([O-])/N=C1\NC(O)C(O)N1Cc1ccc(Cl)nc1 (centres undefined) [4,5-DIHYDROXYIMIDACLOPRID]
- Activity [1]: >370 µM
- MLD [2]: >250 nmol
- Activity [3]: inactive

Structure (SMILES): O=[N+]([O-])/N=C1\NCCN1Cc1ccc(Cl)nc1 [IMIDACLOPRID]
- Activity [4]: Active
- Activity [5]: Active
- Activity [6]: Active
- Activity [7]: Active
- Activity [8]: Active
- Activity [9]: Active
- Activity [1]: 2.3 µM
- MLD [2]: 1.1 nmol
- Activity [10]: inactive

Structure (SMILES): O=[N+]([O-])NC1=NCCN1Cc1ccc(Cl)nc1 [IMIDACLOPRID]
- half-life [11]: 4.5 h

Structure (SMILES): O=[N+]([O-])Nc1nccn1Cc1ccc(Cl)nc1 [DEHYDROIMIDACLOPRID]
- Activity [12]: Active
- Activity [13]: Active
- Activity [14]: Active
- Activity [15]: Active
- Activity [16]: Active
- Activity [17]: Active
- Activity [18]: Active
- Activity [1]: 49 µM
- MLD [2]: 19 nmol
- Ratio [19]: 3
- Ratio [20]: 20
- Ratio [21]: >10
- Ratio [22]: >10
- Ratio [23]: >10
- logP [24]: 0.45
- Ratio [25]: 10

Structure (SMILES): O=[N+]([O-])/N=C1\NCC(O)N1Cc1ccc(Cl)nc1 (centres undefined) [5-HYDROXYIMIDACLOPRID]
- Activity [26]: Active
- Activity [27]: Active
- Activity [28]: Active
- Activity [29]: Active
- Activity [30]: Active
- Activity [31]: Active
- Activity [32]: Active
- Activity [1]: 150 µM
- MLD [2]: 11 nmol
- Ratio [20]: 20
- logP [24]: 8
- Ratio [25]: 10
- Activity [33]: inactive
- Activity [34]: inactive
- Activity [35]: Active
